Measurements published in US7592457B2 (Korea Research Institute of Chemical Technology, priority 2004, dated 2009).

What was measured:
hD2L receptor = molecular target: T1, hD2L receptor (Homo sapiens, UniProt P14416); experiment: Radioligand binding, dopamine D2 ([3H]spiperone); conditions: read-out: Binding affinity (Inhibition rate % at 10 μM) D2
T1 construct: purchased BioSignal Packard Inc., Montreal, Canada
Procedure: (§1) The radioligands used were [^3H] spiperone (for hD2L and hD3 receptors, 1 nM) and [^3H] YM-09151-2 (for hD4.2 receptor, 0.06 nM). Radioligand bindings were performed by the protocols provided by the supplier of receptor membranes (BioSignal Packard Inc., Montreal, Canada). Briefly, the buffer used in D2 or D3 receptor binding assay was 50 mM Tris-HCl (pH 7.4), 10 mM MgCl2, 1 mM EDTA, or 50 mM Tris-HCl (pH 7.4), 5 mM MgCl2, 5 mM EDTA, 5 mM KCl, 1.5 mM CaCl2, 120 mM NaCl, respectively. In [^3H] YM-09151-2 receptor binding assays, the buffer containing 50 mM Tris-HCl (pH 7.4), 5 mM MgCl2, 5 mM EDTA, 5 mM KCl and 1.5 mM CaCl2 was used. Nonspecific binding was determined with haloperidol (10 μM) or clozapine (10 μM) for D2 and D3, and D4 receptors, respectively. Competition binding studies were carried out with 7-8 concentrations of the test compound run in duplicate tubes, and isotherms from three assays were calculated by computerized nonlinear regression analysis (GraphPad Prism Program, San Diego, […]) to yield median inhibitory concentration (IC50) values.

hD3 receptor = molecular target: T2, hD3 receptor (Homo sapiens, UniProt P35462); experiment: Radioligand binding, dopamine D3 ([3H]spiperone); conditions: read-out: Binding affinity (Inhibition rate % at 10 μM) D3
T2 construct: purchased BioSignal Packard Inc., Montreal, Canada
T2 sequence (P35462 whole entry): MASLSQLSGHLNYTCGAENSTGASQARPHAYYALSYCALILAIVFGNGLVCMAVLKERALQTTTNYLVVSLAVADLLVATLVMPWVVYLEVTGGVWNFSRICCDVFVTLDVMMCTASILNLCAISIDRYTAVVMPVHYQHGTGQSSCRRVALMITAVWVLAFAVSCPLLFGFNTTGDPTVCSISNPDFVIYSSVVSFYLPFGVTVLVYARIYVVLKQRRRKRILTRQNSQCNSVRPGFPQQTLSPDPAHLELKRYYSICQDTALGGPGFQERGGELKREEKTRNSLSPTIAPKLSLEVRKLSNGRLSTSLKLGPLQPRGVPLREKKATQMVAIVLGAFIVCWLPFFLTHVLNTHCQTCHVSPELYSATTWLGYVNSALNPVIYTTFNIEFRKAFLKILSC
Procedure: as §1

5-HT7 = molecular target: T3, 5-HT7 (Homo sapiens, UniProt P34969); experiment: Radioligand binding, 5-HT7 ([3H]LSD); conditions: read-out: Binding affinity (Inhibition rate % at 10 μM) 5HT7
T3 construct: purchased Euroscreen/BioSignal Packard Inc
T3 sequence (P34969 whole entry): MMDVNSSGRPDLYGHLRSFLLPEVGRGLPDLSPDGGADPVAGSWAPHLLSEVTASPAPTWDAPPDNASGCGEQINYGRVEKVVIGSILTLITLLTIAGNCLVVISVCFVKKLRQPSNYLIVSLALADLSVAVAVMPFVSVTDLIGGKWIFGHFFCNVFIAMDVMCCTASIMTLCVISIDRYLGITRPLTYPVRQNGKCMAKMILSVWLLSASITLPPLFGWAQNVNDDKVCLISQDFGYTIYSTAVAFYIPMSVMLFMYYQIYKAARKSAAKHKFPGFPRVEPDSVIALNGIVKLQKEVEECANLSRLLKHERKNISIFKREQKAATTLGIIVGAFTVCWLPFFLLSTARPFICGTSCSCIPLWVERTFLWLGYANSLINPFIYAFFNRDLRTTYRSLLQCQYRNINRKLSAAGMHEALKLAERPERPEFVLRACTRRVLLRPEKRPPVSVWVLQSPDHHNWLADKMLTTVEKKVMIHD
Procedure: (§2) Radioligand bindings were performed according to the test method provided by the supplier of receptor membrane (Euroscreen/BioSignal Packard Inc.).

5-HT2a = molecular target: T4, 5-HT2a (Homo sapiens, UniProt P28223); experiment: Radioligand binding, 5-HT2a ([3H]Ketanserin); conditions: read-out: Binding affinity (Inhibition rate % at 10 μM) 5HT2a
T4 construct: purchased Euroscreen/BioSignal Packard Inc
T4 sequence (P28223 whole entry): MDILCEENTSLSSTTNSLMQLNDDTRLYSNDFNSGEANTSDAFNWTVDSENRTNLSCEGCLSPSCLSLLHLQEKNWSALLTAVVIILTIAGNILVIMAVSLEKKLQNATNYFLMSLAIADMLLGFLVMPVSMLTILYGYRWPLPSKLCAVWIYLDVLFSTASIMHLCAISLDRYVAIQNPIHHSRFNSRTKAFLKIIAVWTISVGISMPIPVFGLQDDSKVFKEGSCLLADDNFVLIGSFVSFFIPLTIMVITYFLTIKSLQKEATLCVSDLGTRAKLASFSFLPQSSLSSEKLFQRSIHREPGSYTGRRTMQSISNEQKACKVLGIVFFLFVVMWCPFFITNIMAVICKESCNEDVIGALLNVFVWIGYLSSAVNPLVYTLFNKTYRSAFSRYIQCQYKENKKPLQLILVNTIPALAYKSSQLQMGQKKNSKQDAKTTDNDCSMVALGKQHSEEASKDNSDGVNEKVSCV
Procedure: as §2

D1 = D1 (Homo sapiens, UniProt P21728); experiment: Radioligand binding for selectivity, D1; conditions: read-out: Binding affinity (Inhibition rate % at 10 μM) D1
D1, sequence (P21728 whole entry): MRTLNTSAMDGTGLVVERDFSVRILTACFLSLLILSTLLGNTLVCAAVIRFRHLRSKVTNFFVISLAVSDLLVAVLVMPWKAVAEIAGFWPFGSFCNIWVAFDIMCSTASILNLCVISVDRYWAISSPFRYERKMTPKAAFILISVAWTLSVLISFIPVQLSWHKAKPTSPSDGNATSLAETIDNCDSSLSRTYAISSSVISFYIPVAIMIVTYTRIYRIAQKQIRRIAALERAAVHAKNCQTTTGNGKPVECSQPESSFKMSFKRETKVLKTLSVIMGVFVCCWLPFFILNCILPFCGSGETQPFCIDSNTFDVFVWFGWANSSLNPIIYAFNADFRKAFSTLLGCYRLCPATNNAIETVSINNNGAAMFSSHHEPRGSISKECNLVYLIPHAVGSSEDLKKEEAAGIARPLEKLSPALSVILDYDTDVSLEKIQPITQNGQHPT

5-HT1a = molecular target: T5, 5-HT1a (Homo sapiens, UniProt P08908); experiment: Radioligand binding, 5-HT1a ([3H]8-OH-DPAT); conditions: read-out: Binding affinity (Inhibition rate % at 10 μM) 5HT1a
T5 construct: purchased Euroscreen/BioSignal Packard Inc
T5 sequence (P08908 1-422): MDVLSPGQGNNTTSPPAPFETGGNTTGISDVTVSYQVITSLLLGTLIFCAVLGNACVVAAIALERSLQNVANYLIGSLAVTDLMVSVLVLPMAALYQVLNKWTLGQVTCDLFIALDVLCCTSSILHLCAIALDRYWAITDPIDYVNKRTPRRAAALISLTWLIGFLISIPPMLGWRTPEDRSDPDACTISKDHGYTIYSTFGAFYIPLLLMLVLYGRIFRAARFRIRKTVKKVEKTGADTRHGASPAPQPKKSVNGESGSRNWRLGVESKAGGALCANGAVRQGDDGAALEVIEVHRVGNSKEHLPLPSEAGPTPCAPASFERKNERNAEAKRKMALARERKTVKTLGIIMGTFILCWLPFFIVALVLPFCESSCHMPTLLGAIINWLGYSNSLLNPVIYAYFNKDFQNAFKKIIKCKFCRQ
Procedure: as §2

hD4.2 receptor = molecular target: T6, hD4.2 receptor (Homo sapiens, UniProt P21917, DEL265-296); experiment: Radioligand binding, dopamine D4 ([3H]YM-09151-2); conditions: read-out: Binding affinity (Inhibition rate % at 10 μM) D4
T6 construct: purchased BioSignal Packard Inc., Montreal, Canada
T6 sequence (P21917 with tags, fused parts or gaps DEL265-296): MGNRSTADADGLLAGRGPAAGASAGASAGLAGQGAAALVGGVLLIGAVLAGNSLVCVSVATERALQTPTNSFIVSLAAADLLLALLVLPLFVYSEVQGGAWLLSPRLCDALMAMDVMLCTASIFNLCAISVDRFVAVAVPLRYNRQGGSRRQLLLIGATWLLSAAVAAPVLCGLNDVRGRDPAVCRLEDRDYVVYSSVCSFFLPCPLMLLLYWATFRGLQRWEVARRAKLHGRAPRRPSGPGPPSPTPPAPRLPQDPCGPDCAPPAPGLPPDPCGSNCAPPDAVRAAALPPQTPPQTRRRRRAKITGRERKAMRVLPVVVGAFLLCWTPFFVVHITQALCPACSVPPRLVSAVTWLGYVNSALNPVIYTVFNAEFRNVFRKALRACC
Procedure: as §1

[1] = molecular target: T7, human serotonin 5-HT6 receptor (Homo sapiens, UniProt P50406); experiment: [3H]LSD binding at cloned 5-HT6 receptors; conditions: for IC50: [3H]LSD 1.87 nM, cloned receptor membranes, 37° C., 60 min, read-out: IC50; for inhibition at 10 µM: read-out: Binding affinity (Inhibition rate % at 10 μM) 5HT6
T7 construct: made in house; host or cells: Sf21 insect cells (pBacPAK8 baculovirus vector)
T7 sequence (P50406 whole entry): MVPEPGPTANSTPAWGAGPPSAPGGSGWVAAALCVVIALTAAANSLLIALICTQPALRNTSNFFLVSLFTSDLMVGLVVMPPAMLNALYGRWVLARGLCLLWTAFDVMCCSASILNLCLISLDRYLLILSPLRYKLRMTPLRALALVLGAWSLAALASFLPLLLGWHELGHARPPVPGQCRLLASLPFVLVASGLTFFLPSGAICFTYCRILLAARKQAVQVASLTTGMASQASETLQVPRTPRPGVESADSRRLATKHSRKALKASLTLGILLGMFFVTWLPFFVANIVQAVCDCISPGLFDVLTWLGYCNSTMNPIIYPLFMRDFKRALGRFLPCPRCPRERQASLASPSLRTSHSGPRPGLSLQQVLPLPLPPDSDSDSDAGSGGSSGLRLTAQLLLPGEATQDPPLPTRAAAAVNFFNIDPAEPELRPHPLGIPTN

5-HT2c = molecular target: T8, 5-HT2c (Homo sapiens, UniProt P28335); experiment: Radioligand binding, 5-HT2c ([3H]Mesulergine); conditions: read-out: Binding affinity (Inhibition rate % at 10 μM) 5HT2c
T8 construct: purchased Euroscreen/BioSignal Packard Inc
T8 sequence (P28335 33-458): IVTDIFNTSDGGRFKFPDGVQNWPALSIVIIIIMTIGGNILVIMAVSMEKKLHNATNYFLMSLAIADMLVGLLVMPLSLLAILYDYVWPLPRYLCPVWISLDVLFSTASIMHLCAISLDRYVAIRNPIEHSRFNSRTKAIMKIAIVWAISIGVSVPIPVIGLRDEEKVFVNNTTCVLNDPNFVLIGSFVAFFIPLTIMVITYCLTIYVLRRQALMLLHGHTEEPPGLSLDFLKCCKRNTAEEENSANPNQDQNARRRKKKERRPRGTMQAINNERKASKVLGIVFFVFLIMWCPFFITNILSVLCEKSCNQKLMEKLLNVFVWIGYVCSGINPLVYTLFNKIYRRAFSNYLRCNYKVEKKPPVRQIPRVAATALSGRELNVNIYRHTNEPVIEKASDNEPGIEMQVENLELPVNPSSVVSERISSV
Procedure: as §2

T1 sequence (P14416 whole entry): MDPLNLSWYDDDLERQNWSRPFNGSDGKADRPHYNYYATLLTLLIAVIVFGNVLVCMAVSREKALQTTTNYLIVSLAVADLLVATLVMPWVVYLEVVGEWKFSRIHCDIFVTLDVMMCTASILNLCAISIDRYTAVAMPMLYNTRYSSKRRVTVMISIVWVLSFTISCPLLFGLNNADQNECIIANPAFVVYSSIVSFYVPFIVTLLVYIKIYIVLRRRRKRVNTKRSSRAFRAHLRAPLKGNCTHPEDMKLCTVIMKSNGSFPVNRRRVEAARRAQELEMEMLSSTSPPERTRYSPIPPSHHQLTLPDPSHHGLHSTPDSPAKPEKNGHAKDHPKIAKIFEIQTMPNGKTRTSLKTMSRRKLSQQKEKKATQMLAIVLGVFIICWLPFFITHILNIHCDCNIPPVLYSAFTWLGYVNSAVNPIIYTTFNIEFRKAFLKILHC

Row | SMILES | inhibition at 10 µM (hD2L receptor) [%] | inhibition at 10 µM (hD3 receptor) [%] | inhibition at 10 µM (5-HT7) [%] | inhibition at 10 µM (5-HT2a) [%] | inhibition at 10 µM (D1) [%] | inhibition at 10 µM (5-HT1a) [%] | inhibition at 10 µM (hD4.2 receptor) [%] | IC50 [1] [nM] | inhibition at 10 µM [1] [%] | inhibition at 10 µM (5-HT2c) [%] | 5-HT6 affinity compared with known selective antagonists ([1]; in words)
1 | CC1(c2ccc(O)cc2)C(=O)Nc2ccccc2C1=O (centres unmarked) [Example 34, 3-(4-hydroxy-phenyl)-3-methyl-1H-quinoline-2,4-dione] | 17.3 | 25.4 | 0.9 | 13.5 | 15.8 | 19.8 | 0 | 1260 | 70.8 | 20.1 | 
2 | CC1(c2ccc([N+](=O)[O-])cc2)C(=O)Nc2cc(Cl)c(Cl)cc2C1=O (centres unmarked) [Example 36, 6,7-dichloro-3-methyl-3-(4-nitro-phenyl)-1H-quinoline-2,4-dione] | 16.5 | 11.9 | 16.5 | 13.2 | 12.6 | 42.1 | 0 | 645 | 71.9 | 8.2 | 
3 | CNc1ccc(C2(C)C(=O)Nc3cc(Cl)cc(Cl)c3C2=O)cc1 (centres unmarked) [Example 39, 5,7-dichloro-3-methyl-3-(4-methylamino-phenyl)-1H-quinoline-2,4-dione] | 19.8 | 8.4 | 9.1 | 12.1 | 38.5 | 23 | 10.2 | 418 | 72 | 13.1 | 
4 | CCNc1ccc(C2(C)C(=O)Nc3cc(Cl)cc(Cl)c3C2=O)cc1 (centres unmarked) [Example 41, 5,7-dichloro-3-methyl-3-(4-ethylamino-phenyl)-1H-quinoline-2,4-dione] | 25.2 | 12.6 | 15.4 | 10.8 | 24 | 15.7 | 0 | 46 | 67.7 | 14 | almost same affinities as or better affinities than known selective antagonists
5 | C[C@H](NC(=O)Nc1cccc([C@@]2(C)C(=O)Nc3cc(Cl)cc(Cl)c3C2=O)c1)c1ccccc1 [Example 43, 1-(R)-[3-(5,7-dichloro-3-methyl-2,4-dioxo-1,2,3,4-tetrahydro-quinoline-3-yl) -phenyl]-3-(1-(S) -phenyl-ethyl) -urea] | 5.7 | 24 | 5 | 21.3 | 30.1 | 18 | 6.1 | 1110 | 70.6 | 0 | 
6 | C[C@H](NC(=O)Nc1cccc([C@]2(C)C(=O)Nc3cc(Cl)cc(Cl)c3C2=O)c1)c1ccccc1 [Example 44, 1-(S)-[3-(5,7-dichloro-3-methyl-2,4-dioxo-1,2,3,4-tetrahydro-quinoline-3-yl) -phenyl]-3-(1-(S) -phenyl-ethyl) -urea] | 11.5 | 16.2 | 32.2 | 58.5 | 35 | 25.4 | 0 | 791 | 73.8 | 21.5 | 
7 | CC1(c2ccc(Br)cc2Br)C(=O)Nc2cc(Cl)ccc2C1=O (centres unmarked) [Example 45, 7-chloro-3-(2,4-dibromo-phenyl)-3-methyl-1H-quinoline-2,4-dione] | 13 | 5.6 | 29.5 | 23 | 42.3 | 60.3 | 0 | 2220 | 66 | 31.6 | 
